Assay results published in patent publication US20040087606A1, “Shivering suppression during cooling to lower body temperature” (priority 2002, published 2004).
Where “and” joins values, the source holds several entries; their conditions need not be identical. Equal entries are not always repeated.

Experiments:
Assay type in all cases: in vivo, human
healthy subjects [1] = experiment: Phase 5: as Phase 3a, meperidine plus IV ondansetron
Experimental: (§1) Five contact pads are applied to the thighs, back and abdomen of each subjects, and actively cooled. Temperatures are measured in the same manner as in Phase 1 except that the rectal temperature probe is connected to a control module and the rectal temperature signal is used by the control module to adjust inlet water temperature via a feedback control algorithm to achieve a target core body temperature of 34.5° C.
(§2) A single oral dose of acetaminophen (1000 mg), is administered within 20 minutes prior to treatment. A bolus of IV meperidine (Demerol®, 50-100 mg) is given within 5 minutes of the start of active cooling. Additional doses of meperidine are administered to maintain comfort and to prevent shivering. Active cooling and maintenance of hypothermia continues for five hours. As in the Phase 1, the subjects are actively re-warmed to a tympanic temperature of 36° C. prior to termination of the experiment. Shivering, comfort, oxyhemoglobin saturation, and arterial blood pressure are recorded as in Phase 1.
Phase 5 proceeds as described for Phase 3a, except as noted. The temperature of water circulated to the contact pads is controlled to achieve a target core body temperature of 34.5° C. In addition to meperidine (Demerol®), subjects are also given an IV dose of 8 mg ondansetron (hydrochloride salt, Glaxo Wellcome).

healthy subjects [2] = experiment: Phase 4: as Phase 3a, meperidine plus oral buspirone
Experimental: as §1, §2
Phase 4 proceeds as described for Phase 3a, except as noted. In addition to meperidine (Demerol®), subjects are also given an oral dose of 30-60 mg buspirone.

healthy subjects [3] = experiment: Phases 1 and 3a taken together: haemodynamics, comfort, respiratory compromise, nausea
Experimental: (§3) Four contact pads are applied to the thighs and chest of each subject and each subject is rapidly cooled with an objective of reducing core body temperature to 34-35° C. Core body temperatures are measured at the tympanic membrane and the rectum. Mean skin-surface temperature is determined from the weighted average of calf, thigh, chest, and upper arm skin temperatures. Thermoregulatory vasoconstriction is evaluated using forearm minus fingertip skin-temperature gradients. Temperatures are measured using Mon-a-Therm™ themocouple probes connected to Mallinckrodt Model 6510 two-channel electronic thermometers having an accuracy near 0.1° C. (Mallinckrodt Anesthesia Products, St. Louis, Mo., U.S.A.). Temperatures are recorded before cooling is started (i.e., baseline) and subsequently at 15-minute intervals.
(§4) Each of subjects 1-5 is administered a single dose of acetomiophen (1000 mg) within 20 minutes prior to treatment and is administered a bolus of intravenous (IV) meperidine (Demerol®, 25-75 mg) within 5 minutes of the start of cooling. Subjects also receive initial doses of chlorpromazine (Thorazine®12.5-25 mg, IV). Active cooling is initiated and the inlet water temperature is controlled to achieve a target tympanic temperature between 34° C. and 35° C. Additional doses of meperidine and/or chloropromazine are administered to maintain comfort and to prevent shivering. Active cooling and maintenance of hypothermia continues for up to five hours, after which subjects are actively re-warmed to a tympanic temperature of 36° C.
(§5) The presence of shivering is noted by physical examination, electromyographic artifact on continuous electrocardiography (ECG), or by subject report. Overall thermal comfort is evaluated at 15-min intervals with a 100-mm-long visual analog scale (VAS) on which 0 mm defines the worst imaginable cold, 50 mm identifies thermal neutrality, and 100 mm indicates unbearable heat. A new, unmarked scale is used for each assessment. Heart rate and oxyhemoglobin saturation are monitored using ECG and pulse oximetry; arterial blood pressure is recorded oscillometrically at 15-minute intervals.
as §1, §2

healthy subjects [4] = experiment: Phase 1: induced mild hypothermia by contact-pad cooling with meperidine for shivering suppression
From the text: (§6) Mild hypothermia is induced and maintained in healthy subjects for up to several hours. Each volunteer is cooled using contact pads (Arctic Sun Energy Transfer Pads™, Medivance, Inc., Louisville, Colo., U.S.A.). Contact pads are applied to contact the subjects, and water at a controlled temperature is delivered to and circulated through the contact pads to effect the controlled cooling of each volunteer.
as §3, §4, §5

healthy subjects [5] = experiment: Phase 3a: contact-pad cooling to target core temperature 34.5° C. with meperidine
From the text: as §6, §1, §2

[6] = Phase 4, individual subjects, meperidine plus oral buspirone 30-60 mg
[7] = Phase 4, mean ± SD, 4 subjects, meperidine plus buspirone
[8] = Phase 5, individual subjects, meperidine plus IV ondansetron 8 mg
[9] = Phase 5, mean ± SD, 4 subjects, meperidine plus ondansetron
[10] = individual subjects, meperidine

## Cc1nccn1CC1CCc2c(c3ccccc3n2C)C1=O (stereo not drawn) [ondansetron]
Healthy subjects [1]; p=0.26, t-test, ondansetron 8 mg IV
  Meperidine administration in Phase 5 relative to Phase 3a: trend toward less meperidine administration

## O=C1CC2(CCCC2)CC(=O)N1CCCCN1CCN(c2ncccn2)CC1 [buspirone]
Healthy subjects [2]; in vivo
  Effect on incidence of nausea: did not reduce the incidence of nausea

## CCOC(=O)C1(c2ccccc2)CCN(C)CC1 [meperidine]
Healthy subjects [3]; 180 min timepoint, baseline 122±13, p=0.042
  Systolic blood pressure: 140±20 mm Hg
Healthy subjects [3]; Phases 1 and 3a
  Respiratory compromise: no respiratory compromise is observed
Healthy subjects [3]; Phases 1 and 3a, all cases in Phase 3a
  Subjects in whom nausea is observed: 30%
Healthy subjects [3]; all subjects, during cooling
  Change in blood oxygenation compared with baseline: no statistically significant change
  Change in diastolic blood pressure compared with baseline: no statistically significant change
  Change in heart rate compared with baseline: no statistically significant change
Healthy subjects [4]; Phase 1
  Attainment of mild hypothermia: attained in all subjects
Healthy subjects [4]; Phase 1, individual subjects, given as needed to maintain comfort and prevent shivering, up to five hours
  Total Meperidine Dose: 275 mg and 375 mg and 475 mg and 75 mg and 200 mg
Healthy subjects [4]; Phase 1, individual subjects, meperidine
  Nausea or Vomiting During Treatment: Pruritis and None (4×)
Healthy subjects [4]; Phase 1, individual subjects, meperidine for shivering suppression
  Cooling rate to 35° C.: 1.4 ° C./hr and 1.0 ° C./hr and 1.5 ° C./hr and 2.6 ° C./hr and 1.2 ° C./hr
Healthy subjects [4]; Phase 1, individual subjects, tympanic temperature, IV meperidine 25-75 mg bolus plus additional doses, acetaminophen 1000 mg, chlorpromazine in subjects 1 and 2
  Time to 35° C.: 81 min and 105 min and 78 min and 41 min and 82 min
Healthy subjects [4]; Phase 1, mean ± SD, 5 subjects
  Mean cooling rate to 35° C.: 1.5±0.6 ° C./hr and 1.5 ± .6 ° C./hr
  Mean time to reach a tympanic temperature of 35° C.: 77+23 min and 77 ± 23 min
  Mean total dosage of meperidine: 280 ± 155 mg and 280 mg
Healthy subjects [2]; [6]
  Cooling rate to 35° C.: 1.1 ° C./hr (2×) and 1.9 ° C./hr and 0.8 ° C./hr
  Nausea or Vomiting During Treatment: Nausea early, and Vomiting end and None and Nausea mid and Nausea end
  Time to 35° C.: 105 min and 95 min and 63 min and 158 min
Healthy subjects [2]; Phase 4, individual subjects, with oral buspirone 30-60 mg
  Total Meperidine Dose: 250 mg (3×) and 400 mg
Healthy subjects [2]; [7]
  Mean cooling rate to 35° C.: 1.2 ± .5 ° C./hr
  Mean time to 35° C.: 105 ± 39 min
Healthy subjects [2]; Phase 4, mean ± SD, 4 subjects, with buspirone
  Mean total meperidine dose: 288 ± 75 mg
Healthy subjects [1]; Phase 5
  Attainment of mild hypothermia: attained in all subjects
Healthy subjects [1]; [8]
  Cooling rate to 35° C.: 1.5 ° C./hr and 1.4 ° C./hr and 1.6 ° C./hr and 1.9 ° C./hr
  Nausea or Vomiting During Treatment: None (2×) and Nausea post and Nausea and vomiting
  Time to 35° C.: 80 min and 58 min and 88 min and 60 min
Healthy subjects [1]; Phase 5, individual subjects, with IV ondansetron 8 mg
  Total Meperidine Dose: 275 mg and 250 mg and 325 mg and 375 mg
Healthy subjects [1]; [9]
  Mean cooling rate to 35° C.: 1.6 ° C./hr and 1.6 ± .2 ° C./hr
  Mean time to reach a tympanic temperature of 35.0° C.: 72 ± 15 min
Healthy subjects [1]; Phase 5, mean ± SD, 4 subjects, with ondansetron
  Mean total dosage of meperidine: 306 ± 55 mg
Healthy subjects [1]; Phase 5, one of five enrolled, caused a facial rash
  Withdrawal of a subject for adverse reaction to meperidine: mild allergic reaction
Healthy subjects [5]; individual subjects, as needed to maintain comfort and prevent shivering, five hours
  Total Meperidine Dose: 400 mg and 500 mg and 350 mg (2×) and 250 mg
Healthy subjects [5]; [10]
  Cooling rate to 35° C.: 1.9 ° C./hr and .9 ° C./hr and 1.2 ° C./hr and 1.7 ° C./hr and 1.4 ° C./hr
  Nausea or Vomiting During Treatment: Nausea end (2×) and None and Nausea early, and Nausea, and vomiting mid
Healthy subjects [5]; individual subjects, tympanic temperature, IV meperidine 50-100 mg bolus plus additional doses, acetaminophen 1000 mg
  Time to 35° C.: 64 min and 180 min and 95 min and 56 min and 53 min
Healthy subjects [5]; mean ± SD, 5 subjects
  Mean cooling rate to 35° C.: 1.4±0.4 ° C./hr and 1.4 ± .4 ° C./hr
  Mean time to reach a tympanic temperature of 35° C.: 90 ± 53 min
  Mean total dosage of meperidine: 370 ± 91 mg and 370 mg
